# According to patent US7875601B2, “Cancer treatment with epothilones” (Novartis AG, priority 1998, dated 2011):
# Where “and” joins values, the source holds several entries; their conditions need not be identical. Identical values can stand only once. Like-named read-outs stand apart in the source and are kept apart here. Marks after values point to notes of the source that are not given here.
# Experiments:
# [1] = Determination of the single i.v. dose MTD in normal female BALB/c mice; assay type: in vivo
# Experimental: The Maximal Tolerated Dose (MTD) is determined according to standard procedures; preferably, in warm-blooded animals the MTD in case of oral or intravenous administration is determined as the Dose of a single administration where no death occurs and a loss of body weight of less than 40, preferably less than 25, percent (%) is found in the treated warm-blooded animal individual (this term here mainly referring to an animal; for humans see below).
# For the MTD determination, female BALB/c nude mice or BALB/c mice (obtained from Novartis Animal Farm, Sisseln, Switzerland) are treated once intravenously with epothilone B (n=3 per dose group). The dosage is increased (2, 4, 6, 8, 10 and 12 mg/kg) and the mice are observed for the presentation of overt toxic effects for 10 days after drug treatment.
# A549 (Lung) = experiment: Antiproliferative assay, A549; assay type: cell-based, human; details: A549, 5 d exposure, mean ± SD, n = 3 (epothilone B n = 2); read-out: IC50 for growth inhibition
# Experimental: Antiproliferative assays are performed as previously described (Int. J. Cancer 43, 851-6 (1989)). Briefly, cells are seeded at 1.5×10^3 cells/well into 96-well microtiter plates and incubated overnight. Compounds are added in serial dilutions on day 1. The plates are then incubated for an additional 2 to 5 days, allowing for at least one cell doubling (cell line dependent), after which the cells are fixed with 3.3% v/v glutaraldehyde, washed with water and stained with 0.05% w/v methylene blue. After washing, the dye is eluted with 3% v/v HCl and the optical density measured at 665 nm with a SpectraMax 340 (Bucherer, Basel, Switzerland). IC50 values are determined by a computerized system (SoftPro, Bucherer, Basel, Switzerland) using the formula (OD test−OD start)/(OD control−OD start)×100. IC50 is defined as the drug concentration which leads to 50% of cells per well compared to control cultures (100%) at the end of incubation period.
# [2] = system: human KB-8511 epidermoid carcinoma; assay type: in vivo, female BALB/c nude mice; details: for % Body Weight Change / D Body Weight / D Tumor Volume (mm^3): mean ± SEM
# Experimental: The human epidermal (mouth) carcinoma cell line KB-8511 (a P-gp over-expressing cell line derived from the epidermoid (mouth) KB-31 carcinoma cell line) is obtained from Dr. R. M. Baker, Roswell Park Memorial Institute (Buffalo, N.Y., USA) (for description see Akiyama et al., Somat. Cell. Mol. Genetics 11, 117-126 (1985) and Fojo A., et al., Cancer Res. 45, 3002-3007 (1985)) and is cultured as previously described (Meyer, T., et al., Int. J. Cancer 43 851-856 (1989)).
# Female or male BALB/c nu/nu (nude) mice are kept under sterile conditions (10 to 12 mice per Type III cage) with free access to food and water. Mice weigh between 20 and 25 grams at the time of tumor implantation. Tumors are established by subcutaneous injection of cells (minimum 2×10^6 cells in 100 μl PBS or medium) in carrier mice (4-8 mice per cell line). The resulting tumors are serially passaged for a minimum of three consecutive transplantations prior to start of treatment. Tumor fragments (approx. 25 mg) are implanted s.c. into the left flank of animals with a 13-gauge trocar needle while the mice are exposed to Forene (Abbott, Switzerland) anesthesia.
# Tumor growth and body weights are monitored once or twice weekly. All treatments are administered intravenously (i.v.) and are initiated when a mean tumor volume of approximately 100 to 250 mm^3 is attained, depending upon the tumor type. Tumor volumes are determined using the formula […] (see Cancer Chemother. Pharmacol. 24:148-154, [1989]). Treatments with epothilone B vary the dose and the frequency of administration. Comparator agents are administered according to previously determined optimal treatment regimens. In addition to presenting changes in tumor volumes over the course of treatment, antitumor activity is expressed as T/C % (mean increase of tumor volumes of treated animals divided by the mean increase of tumor volumes of control animals multiplied by 100). Tumor. regression (%) represents the smallest mean tumor volume compared to the mean tumor volume at the start of treatment, according to the formula Regression (%)=(1−Vend/Vstart)×100(Vend=final mean tumor volume, Vstart=mean tumor volume at the start of treatment. Any animals in which the tumor has reached a size exceeding approximately 1.5 to 2.5 cm^3 are sacrificed. Details can be found below.
# [3] = system: A549 non small cell lung tumors; experiment: Antitumor activity on A549 tumors, regimen comparison (Example 7); details: for % Regression / % T/C / Delta % Body Weight / Delta Mean Tumor Vol. (mm^3): day 37
# Experimental: 3-10 million cells are implanted s.c. into the right axillary (lateral) region of outbred athymic (nu/nu) mice, and are allowed to grow until a tumor volume of approximately 100 mm^3 is established. […] Positive controls are carried out with clinical formulations of TAXOL® diluted 6 fold with D5W and administered i.v. 3×/week.
# Antitumor activity is expressed as % T/C (comparing Δ tumor volumes for treatment group to vehicle control group) at the end of the experiment. Regressions are calculated using the formula: −(T/T0−1)×100%, where T is the tumor volume for the treatment group at the end of the experiment, and T0 is the tumor volume at the beginning of the experiment. Statistical significance is evaluated using a one-tailed Student's t-test.
# [4] = 2 mg/kg single i.v. bolus, Experiment 2
# [5] = 4 mg/kg single i.v. bolus, Experiment 2
# [6] = 6 mg/kg single i.v. bolus, Experiment 1
# [7] = 6 mg/kg single i.v. bolus, Experiment 2
# [8] = 8 mg/kg single i.v. bolus, Experiment 1
# [9] = 8 mg/kg single i.v. bolus, Experiment 2
# [10] = 10 mg/kg single i.v. bolus, Experiment 1
# [11] = 12 mg/kg single i.v. bolus, Experiment 1
smiles,measurement,setting,value
C/C(=C\c1csc(C)n1)[C@@H]1C[C@@H]2O[C@]2(C)CCC[C@H](C)[C@H](O)[C@@H](C)C(=O)C(C)(C)[C@@H](O)CC(=O)O1 [epothilone B],Body Weight % Change,[1]; [4],12.3 ± 3.0%
same,Body Weight Δ (mean g ± SD),[1]; [4],2.3 ± 0.6 g
same,Mortalities,[1]; [4],0/3
same,Body Weight % Change,[1]; [5],6.5 ± 2.6%
same,Body Weight Δ (mean g ± SD),[1]; [5],1.3 ± 0.6 g
same,Mortalities,[1]; [5],0/3
same,Body Weight % Change,[1]; [6],−28.6 ± 3.5%
same,Body Weight Δ (mean g ± SD),[1]; [6],-6.1 ± 0.9 g
same,Mortalities,[1]; [6],1/3
same,Body Weight % Change,[1]; [7],−27.5 ± 2.1%
same,Body Weight Δ (mean g ± SD),[1]; [7],-5.3 ± 0.6 g
same,Mortalities,[1]; [7],2/3
same,Body Weight % Change,[1]; [8],−22.1 ± 13.1%
same,Body Weight Δ (mean g ± SD),[1]; [8],-5.1 ± 3.2 g
same,Mortalities,[1]; [8],3/3
same,Body Weight % Change,[1]; [9],−25.3 ± 3.9%
same,Body Weight Δ (mean g ± SD),[1]; [9],-5.0 ± 1.0 g
same,Mortalities,[1]; [9],3/3
same,Body Weight % Change,[1]; [10],−24.9 ± 1.6%
same,Body Weight Δ (mean g ± SD),[1]; [10],-5.6 ± 0.6 g
same,Mortalities,[1]; [10],3/3
same,Body Weight % Change,[1]; [11],−23.6 ± 11.9%
same,Body Weight Δ (mean g ± SD),[1]; [11],-5.4 ± 2.9 g
same,Mortalities,[1]; [11],3/3
same,MTD,"[1]; single dose i.v., normal mice",4 mg/kg
same,IC50,A549 (Lung),0.19 ± 0.12 nM
same,Regression,"[2]; 1 mg/kg, i.v. once per week",none
same,Survival (No. alive/total),"[2]; 1 mg/kg, i.v. once per week",8/8
same,T/C,"[2]; 1 mg/kg, i.v. once per week, final",81%
same,% Body Weight Change,"[2]; 1 mg/kg, i.v. once per week",12 ± 1%
same,D Body Weight,"[2]; 1 mg/kg, i.v. once per week",2.6 ± 0.3 g
same,D Tumor Volume (mm^3),"[2]; 1 mg/kg, i.v. once per week",1620 ± 290 mm^3
same,Survival (No. alive/total),"[2]; 2 mg/kg, i.v. once per week",8/8
same,T/C,"[2]; 2 mg/kg, i.v. once per week, final",14%
same,% Body Weight Change,"[2]; 2 mg/kg, i.v. once per week",5 ± 2%
same,D Body Weight,"[2]; 2 mg/kg, i.v. once per week",1.1 ± 0.4 g
same,D Tumor Volume (mm^3),"[2]; 2 mg/kg, i.v. once per week",289 ± 204 mm^3
same,mice with undetectable tumors at the end of the experiment,[2]; 2 mg/kg/week,⅛
same,Survival (No. alive/total),"[2]; 4 mg/kg, i.v. once on day 13",8/8
same,T/C,"[2]; 4 mg/kg, i.v. once on day 13, final",24%
same,% Body Weight Change,"[2]; 4 mg/kg, i.v. once on day 13",3 ± 2%
same,D Body Weight,"[2]; 4 mg/kg, i.v. once on day 13",0.6 ± 0.6 g
same,D Tumor Volume (mm^3),"[2]; 4 mg/kg, i.v. once on day 13",484 ± 103 mm^3
same,Regression,"[2]; 4 mg/kg, i.v. once on day 13, transient, day 25 post transplantation",−51%
same,Survival (No. alive/total),"[2]; 4 mg/kg, i.v. once per week",8/8
same,T/C,"[2]; 4 mg/kg, i.v. once per week (days 13, 21 and 27)",Regression
same,% Body Weight Change,"[2]; 4 mg/kg, i.v. once per week",−5±7% and −5 ± 3%
same,D Body Weight,"[2]; 4 mg/kg, i.v. once per week",-1.1 ± 0.4 g
same,D Tumor Volume (mm^3),"[2]; 4 mg/kg, i.v. once per week",−107 ± 14 mm^3
same,mice with undetectable tumors at the end of the experiment,[2]; 4 mg/kg/week,⅝
same,Dead/Total,[3]; 0.5 mg/kg i.v. 5x/week,0/8
same,% Regression,[3]; 0.5 mg/kg i.v. 5x/week,none
same,% T/C,[3]; 0.5 mg/kg i.v. 5x/week,41** %
same,Delta % Body Weight,[3]; 0.5 mg/kg i.v. 5x/week,−23.1%
same,Delta Mean Tumor Vol. (mm^3),[3]; 0.5 mg/kg i.v. 5x/week,178 mm^3
same,% T/C,"[3]; 0.5 mg/kg i.v. 5x/week, listed as Epothilone B",41%
same,body weight loss,"[3]; 0.5 mg/kg, 5×/week",23%
same,Dead/Total,[3]; 1.5 mg/kg i.v. 3x/week,8/8
same,Dead/Total,"[3]; 1.5 mg/kg i.v. 3x/week, listed as Epothilone B",all animals have to be euthanatized
same,body weight loss,[3]; 4 mg/kg administered 1×/week,13%
same,Dead/Total,[3]; 4 mg/kg i.v. 1x/week,0/8
same,% Regression,[3]; 4 mg/kg i.v. 1x/week,none
same,% T/C,[3]; 4 mg/kg i.v. 1x/week,7** %
same,Delta % Body Weight,[3]; 4 mg/kg i.v. 1x/week,−13.2%
same,Delta Mean Tumor Vol. (mm^3),[3]; 4 mg/kg i.v. 1x/week,32 mm^3
same,% T/C,"[3]; 4 mg/kg i.v. 1x/week, listed as Epothilone B",7%
same,Dead/Total,[3]; 6 mg/kg i.v. once (day 16),0/8
same,% Regression,[3]; 6 mg/kg i.v. once (day 16),none
same,% T/C,[3]; 6 mg/kg i.v. once (day 16),41** %
same,Delta % Body Weight,[3]; 6 mg/kg i.v. once (day 16),+8.5%
same,Delta Mean Tumor Vol. (mm^3),[3]; 6 mg/kg i.v. once (day 16),178 mm^3
same,% T/C,"[3]; 6 mg/kg i.v. once (day 16), listed as Epothilone B",41%
